From US10881637B2 (priority 2015, dated 2021)
Where two headings read alike, the source gives them in different places.

Tests used:
[1] = system: subject with bipolar disorder; experiment: Salvia divinorum by combustion and inhalation in one subject with bipolar disorder (Example 1); type: in vivo, human; conditions: for mania on traditional antidepressants: same subject, very small, sub-therapeutic doses
From the text: This method was repeated approximately 20 times with consistent results.

[2] = system: 50 other receptors, transporters and ion channels including mu- and delta-opioid receptors; conditions: cited from earlier work
D2 receptor = D2 receptor (Homo sapiens, UniProt P14416); conditions: cited from earlier work
5HTP2A receptors = 5HTP2A receptors (Homo sapiens, UniProt P28223); conditions: cited from earlier work
[3] = cited from earlier work

Sequence of 5HTP2A receptors (P28223 whole entry): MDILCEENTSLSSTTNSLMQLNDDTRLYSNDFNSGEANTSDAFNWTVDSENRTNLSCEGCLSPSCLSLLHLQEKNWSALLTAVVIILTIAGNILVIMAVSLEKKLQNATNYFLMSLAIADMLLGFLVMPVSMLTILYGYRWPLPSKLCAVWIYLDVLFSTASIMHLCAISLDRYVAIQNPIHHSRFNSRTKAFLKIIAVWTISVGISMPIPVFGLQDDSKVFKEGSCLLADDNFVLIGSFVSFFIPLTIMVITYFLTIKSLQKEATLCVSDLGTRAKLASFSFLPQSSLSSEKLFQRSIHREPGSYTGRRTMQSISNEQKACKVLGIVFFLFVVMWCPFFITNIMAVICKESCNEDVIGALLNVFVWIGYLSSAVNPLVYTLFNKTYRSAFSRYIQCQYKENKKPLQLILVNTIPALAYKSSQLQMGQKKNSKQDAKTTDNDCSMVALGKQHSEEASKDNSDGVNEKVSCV
Sequence of D2 receptor (P14416 whole entry): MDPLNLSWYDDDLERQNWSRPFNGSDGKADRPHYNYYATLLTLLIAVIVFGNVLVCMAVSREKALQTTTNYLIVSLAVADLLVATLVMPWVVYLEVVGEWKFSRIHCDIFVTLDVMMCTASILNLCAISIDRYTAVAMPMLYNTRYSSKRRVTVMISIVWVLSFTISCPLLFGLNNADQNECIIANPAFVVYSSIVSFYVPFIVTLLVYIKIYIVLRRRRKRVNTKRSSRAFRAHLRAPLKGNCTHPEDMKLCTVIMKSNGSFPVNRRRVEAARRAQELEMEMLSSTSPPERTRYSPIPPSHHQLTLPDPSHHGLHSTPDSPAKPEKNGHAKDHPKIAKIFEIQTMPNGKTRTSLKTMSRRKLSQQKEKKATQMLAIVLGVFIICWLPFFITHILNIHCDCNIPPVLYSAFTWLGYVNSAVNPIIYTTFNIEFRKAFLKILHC

Compound: CN(C)CCCC1(c2ccc(F)cc2)OCc2cc(C#N)ccc21 (centres unmarked) [celexa]
- mania on traditional antidepressants [1]: experienced mania

Compound: O=C1CN=C(c2ccccc2Cl)c2cc([N+](=O)[O-])ccc2N1 [clonazepam]
- effect on the anxiolytic and antidepressant effects of Salvia divinorum alone ([1]; clonazepam oral and/or sublingual, about 1.5 mg b.i.d., along with cannabis and/or intranasal ketamine and inhaled Salvia divinorum): appeared to potentiate
- effect on anxiety, tremor or other side effects of Salvia divinorum administration ([1]; clonazepam oral and/or sublingual, along with cannabis and/or intranasal ketamine and inhaled Salvia divinorum): helped to further alleviate any anxiety, tremor or any other side effect

Compound: CN[C@H]1CC[C@@H](c2ccc(Cl)c(Cl)c2)c2ccccc21 [sertraline]
- mania on traditional antidepressants [1]: experienced mania

Compound: CNC1(c2ccccc2Cl)CCCCC1=O (centres unmarked) [ketamine]
- effect on the anxiolytic and antidepressant effects of Salvia divinorum alone ([1]; co-administered with inhaled Salvia divinorum, cannabis by combustion and inhalation and/or ketamine hydrochloride about 30 to about 75 mg intranasal): appeared to potentiate

Compound: COC(=O)[C@@H]1C[C@H](OC(C)=O)C(=O)[C@H]2[C@@]1(C)CC[C@H]1C(=O)O[C@H](c3ccoc3)C[C@]21C [salvinorin A]
- effect on a battery of 50 other receptors, transporters and ion channels [2]: no significant effect
- D2 receptor activity (D2 receptor): partial agonist
- effect on 5HTP2A receptors (5HTP2A receptors): no significant effect
- effect on 5HTP2A receptors (5HTP2A receptors; listed as Salvinorin A): no substantial effect
- activity when administered orally ([3]; encapsulated, oral): inactive
- absorption on sublingual administration ([3]; sublingual): inconsistent results or no absorption at all
